Experiment in all cases: Kinase selectivity, scanMAX Kinase assay panel (DiscoverX), % control at 1 uM
Holding throughout (assay type): binding

Test [1] addresses T1, scanMAX Kinase assay panel (Homo sapiens, UniProt Q9HC98).
T1 construct: purchased DiscoverX
As to conditions: NEK6; 1 uM; read-out: Percent Control (%). The method, boiled down:
(§1)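 Read-out is percent of control, derived from the signal with compound relative to positive and negative controls: (compound − positive)/(negative − positive) × 100. Each enzyme received test drug at 1 uM in DMSO, and values under 35% count as active.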

In test [2] the target is T2, scanMAX Kinase assay panel (Homo sapiens, UniProt Q13233).
T2 construct: purchased DiscoverX
Particulars: MAP3K1; 1 uM; read-out: Percent Control (%). The method, boiled down: as §1

Test [3] has as its target T3, scanMAX Kinase assay panel (Homo sapiens, UniProt P42338).
T3 construct: purchased DiscoverX
Particulars: PIK3CB; 1 uM; read-out: Percent Control (%). The essentials: as §1

For test [4], the target named is T4, scanMAX Kinase assay panel (Homo sapiens, UniProt Q9Y6M4).
T4 construct: purchased DiscoverX
As to conditions: CSNK1G3; 1 uM; read-out: Percent Control (%). The method, boiled down: as §1

Test [5] deals with T5, scanMAX Kinase assay panel (Homo sapiens, UniProt P07949, M918T).
T5 construct: purchased DiscoverX
As to conditions: RET (M918T); 1 uM; read-out: Percent Control (%). The essentials: as §1

In test [6] the target is T6, scanMAX Kinase assay panel (Homo sapiens, UniProt P29317).
T6 construct: purchased DiscoverX
As to conditions: EPHA2; 1 uM; read-out: Percent Control (%). The essentials:
as §1

Test [7] concerns the target T7, scanMAX Kinase assay panel (Homo sapiens, UniProt P52333).
T7 construct: purchased DiscoverX
T7 sequence (P52333 1-1124): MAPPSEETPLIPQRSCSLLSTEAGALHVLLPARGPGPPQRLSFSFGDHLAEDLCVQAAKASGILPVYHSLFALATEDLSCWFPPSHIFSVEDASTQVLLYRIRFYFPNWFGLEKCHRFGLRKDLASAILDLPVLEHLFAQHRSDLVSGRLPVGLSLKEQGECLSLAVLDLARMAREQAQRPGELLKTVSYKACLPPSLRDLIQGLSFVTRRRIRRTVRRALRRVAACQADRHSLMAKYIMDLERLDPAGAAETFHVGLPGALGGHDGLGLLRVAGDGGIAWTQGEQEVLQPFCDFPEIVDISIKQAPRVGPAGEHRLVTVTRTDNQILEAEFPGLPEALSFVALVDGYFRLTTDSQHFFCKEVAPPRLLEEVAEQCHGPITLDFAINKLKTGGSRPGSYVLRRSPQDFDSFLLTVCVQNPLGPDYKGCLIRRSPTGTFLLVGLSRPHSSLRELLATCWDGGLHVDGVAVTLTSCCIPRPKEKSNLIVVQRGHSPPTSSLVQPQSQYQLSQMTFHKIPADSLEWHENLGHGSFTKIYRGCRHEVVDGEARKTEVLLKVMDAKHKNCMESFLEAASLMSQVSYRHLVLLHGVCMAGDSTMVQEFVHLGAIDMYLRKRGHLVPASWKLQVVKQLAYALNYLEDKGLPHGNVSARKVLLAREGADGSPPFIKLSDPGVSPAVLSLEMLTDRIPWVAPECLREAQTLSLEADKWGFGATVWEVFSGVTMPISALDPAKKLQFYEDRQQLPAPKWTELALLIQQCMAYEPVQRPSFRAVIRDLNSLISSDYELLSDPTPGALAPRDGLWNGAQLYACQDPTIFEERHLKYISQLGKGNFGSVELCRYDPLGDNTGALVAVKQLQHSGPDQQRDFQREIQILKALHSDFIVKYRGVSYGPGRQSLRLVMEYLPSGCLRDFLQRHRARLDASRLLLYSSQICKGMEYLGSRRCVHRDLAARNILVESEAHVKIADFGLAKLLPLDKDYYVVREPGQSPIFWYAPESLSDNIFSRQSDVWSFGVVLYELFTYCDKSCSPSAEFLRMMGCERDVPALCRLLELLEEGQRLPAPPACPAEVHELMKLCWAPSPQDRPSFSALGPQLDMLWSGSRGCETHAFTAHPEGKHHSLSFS
As to conditions: JAK3 (JH1domain-catalytic); 1 uM; read-out: Percent Control (%). The method, boiled down: as §1

Test [8] concerns the target T8, scanMAX Kinase assay panel (Homo sapiens, UniProt O14965).
T8 construct: purchased DiscoverX
T8 sequence (O14965 1-403): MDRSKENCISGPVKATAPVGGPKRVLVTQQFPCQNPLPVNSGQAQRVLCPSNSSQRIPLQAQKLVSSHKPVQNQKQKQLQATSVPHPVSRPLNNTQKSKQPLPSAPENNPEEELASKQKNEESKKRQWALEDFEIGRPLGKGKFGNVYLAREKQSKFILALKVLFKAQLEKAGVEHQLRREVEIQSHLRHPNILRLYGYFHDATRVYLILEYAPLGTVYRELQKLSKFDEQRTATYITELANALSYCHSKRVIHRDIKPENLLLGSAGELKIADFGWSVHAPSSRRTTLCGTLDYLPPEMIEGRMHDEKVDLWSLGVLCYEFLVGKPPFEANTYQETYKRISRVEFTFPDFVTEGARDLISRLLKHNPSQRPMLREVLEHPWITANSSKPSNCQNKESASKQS
Particulars: AURKA; 1 uM; read-out: Percent Control (%). The essentials: as §1

Test [9] addresses T9, scanMAX Kinase assay panel (Plasmodium falciparum, UniProt P62344).
T9 construct: purchased DiscoverX
Particulars: PFCDPK1 (P. falciparum); 1 uM; read-out: Percent Control (%). The method, boiled down: as §1

In test [10] the target is T10, scanMAX Kinase assay panel (Homo sapiens, UniProt P24941).
T10 construct: purchased DiscoverX
As to conditions: CDK2; 1 uM; read-out: Percent Control (%). The method, boiled down: as §1

The target in test [11] is T11, scanMAX Kinase assay panel (Homo sapiens, UniProt Q9H3Y6).
T11 construct: purchased DiscoverX
As to conditions: SRMS; 1 uM; read-out: Percent Control (%). The essentials:
as §1

The target in test [12] is T12, scanMAX Kinase assay panel (Homo sapiens, UniProt P45983).
T12 construct: purchased DiscoverX
As to conditions: JNK1; 1 uM; read-out: Percent Control (%). The method, boiled down: as §1

Test [13] concerns the target T13, scanMAX Kinase assay panel (Homo sapiens, UniProt P80192).
T13 construct: purchased DiscoverX
As to conditions: MLK1; 1 uM; read-out: Percent Control (%). The essentials:
as §1

The text below walks through data of US10870647B2, “Imidazopyridine derivative, method for preparing same, and pharmaceutical composition containing same as active ingredient for preventing or treating cancer” (DAEGU-GYEONGBUK MEDICAL INNOVATION FOUNDATION, priority 2016, dated 2020).

Structures are written as SMILES.

T12 sequence (P45983 whole entry): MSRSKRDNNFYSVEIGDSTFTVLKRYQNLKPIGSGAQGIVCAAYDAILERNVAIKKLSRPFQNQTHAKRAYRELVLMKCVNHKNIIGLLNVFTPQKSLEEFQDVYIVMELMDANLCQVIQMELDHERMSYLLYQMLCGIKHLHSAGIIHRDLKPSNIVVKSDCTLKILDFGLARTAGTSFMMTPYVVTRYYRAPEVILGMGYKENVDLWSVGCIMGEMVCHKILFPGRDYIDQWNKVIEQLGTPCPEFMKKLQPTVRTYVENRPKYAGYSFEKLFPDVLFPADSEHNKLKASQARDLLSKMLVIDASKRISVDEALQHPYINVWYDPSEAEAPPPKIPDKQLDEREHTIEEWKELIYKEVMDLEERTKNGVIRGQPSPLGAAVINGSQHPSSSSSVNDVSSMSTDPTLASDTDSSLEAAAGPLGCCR
T13 sequence (P80192 whole entry): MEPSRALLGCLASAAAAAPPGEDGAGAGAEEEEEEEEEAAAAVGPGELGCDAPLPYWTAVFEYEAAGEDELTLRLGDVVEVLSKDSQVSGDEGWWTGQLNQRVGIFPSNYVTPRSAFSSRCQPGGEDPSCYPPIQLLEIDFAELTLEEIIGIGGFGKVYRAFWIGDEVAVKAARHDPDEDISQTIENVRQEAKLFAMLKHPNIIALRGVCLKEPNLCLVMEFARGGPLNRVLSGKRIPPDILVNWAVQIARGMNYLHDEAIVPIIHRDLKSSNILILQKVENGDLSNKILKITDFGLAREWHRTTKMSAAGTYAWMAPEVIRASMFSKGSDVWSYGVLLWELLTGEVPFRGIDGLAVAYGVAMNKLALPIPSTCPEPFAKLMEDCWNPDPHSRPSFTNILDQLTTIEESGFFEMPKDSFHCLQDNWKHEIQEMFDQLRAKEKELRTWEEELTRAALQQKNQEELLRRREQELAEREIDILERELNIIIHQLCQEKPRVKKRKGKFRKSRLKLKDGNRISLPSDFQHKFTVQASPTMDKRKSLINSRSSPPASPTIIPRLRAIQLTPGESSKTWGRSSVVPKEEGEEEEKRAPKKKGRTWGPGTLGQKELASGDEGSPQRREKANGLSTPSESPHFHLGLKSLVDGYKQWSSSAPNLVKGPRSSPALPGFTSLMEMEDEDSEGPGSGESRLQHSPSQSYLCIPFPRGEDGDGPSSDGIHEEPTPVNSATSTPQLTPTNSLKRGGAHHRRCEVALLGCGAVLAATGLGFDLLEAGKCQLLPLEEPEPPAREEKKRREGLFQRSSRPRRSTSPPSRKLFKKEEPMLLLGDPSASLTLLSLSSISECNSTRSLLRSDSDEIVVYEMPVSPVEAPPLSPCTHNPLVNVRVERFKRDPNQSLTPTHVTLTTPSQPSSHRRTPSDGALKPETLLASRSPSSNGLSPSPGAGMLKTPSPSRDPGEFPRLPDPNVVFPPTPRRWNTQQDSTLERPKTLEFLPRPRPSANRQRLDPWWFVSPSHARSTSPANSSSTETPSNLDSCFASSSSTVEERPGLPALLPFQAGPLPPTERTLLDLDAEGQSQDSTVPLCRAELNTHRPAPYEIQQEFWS
T5 sequence (P07949 29-1114 M918T): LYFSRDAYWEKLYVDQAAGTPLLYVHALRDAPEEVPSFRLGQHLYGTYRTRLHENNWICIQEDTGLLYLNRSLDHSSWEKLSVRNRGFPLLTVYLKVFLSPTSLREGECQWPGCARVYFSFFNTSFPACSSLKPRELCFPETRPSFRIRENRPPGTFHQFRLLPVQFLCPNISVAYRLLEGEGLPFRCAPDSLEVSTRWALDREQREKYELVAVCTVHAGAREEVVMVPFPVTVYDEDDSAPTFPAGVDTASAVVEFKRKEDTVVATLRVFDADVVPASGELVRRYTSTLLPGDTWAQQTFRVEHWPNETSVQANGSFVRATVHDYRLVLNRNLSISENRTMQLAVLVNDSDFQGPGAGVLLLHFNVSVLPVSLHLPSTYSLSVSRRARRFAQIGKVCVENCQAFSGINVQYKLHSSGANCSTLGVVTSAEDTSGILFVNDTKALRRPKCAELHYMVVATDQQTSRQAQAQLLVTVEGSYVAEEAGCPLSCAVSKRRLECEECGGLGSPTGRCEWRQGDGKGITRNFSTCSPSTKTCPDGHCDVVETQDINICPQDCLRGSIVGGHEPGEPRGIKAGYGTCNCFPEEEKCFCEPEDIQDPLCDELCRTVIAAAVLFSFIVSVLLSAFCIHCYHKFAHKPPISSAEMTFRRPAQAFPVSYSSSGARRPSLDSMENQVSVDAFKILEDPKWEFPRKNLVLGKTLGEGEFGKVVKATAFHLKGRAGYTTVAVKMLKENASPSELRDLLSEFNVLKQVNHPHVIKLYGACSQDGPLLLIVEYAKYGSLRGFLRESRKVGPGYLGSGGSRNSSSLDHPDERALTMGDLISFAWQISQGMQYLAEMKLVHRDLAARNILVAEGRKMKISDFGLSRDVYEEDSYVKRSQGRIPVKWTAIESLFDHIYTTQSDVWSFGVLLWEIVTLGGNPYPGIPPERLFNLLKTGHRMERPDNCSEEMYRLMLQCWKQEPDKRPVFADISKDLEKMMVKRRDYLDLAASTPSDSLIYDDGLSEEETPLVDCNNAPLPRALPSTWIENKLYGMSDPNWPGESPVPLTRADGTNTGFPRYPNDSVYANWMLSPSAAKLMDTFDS
T9 sequence (P62344 whole entry): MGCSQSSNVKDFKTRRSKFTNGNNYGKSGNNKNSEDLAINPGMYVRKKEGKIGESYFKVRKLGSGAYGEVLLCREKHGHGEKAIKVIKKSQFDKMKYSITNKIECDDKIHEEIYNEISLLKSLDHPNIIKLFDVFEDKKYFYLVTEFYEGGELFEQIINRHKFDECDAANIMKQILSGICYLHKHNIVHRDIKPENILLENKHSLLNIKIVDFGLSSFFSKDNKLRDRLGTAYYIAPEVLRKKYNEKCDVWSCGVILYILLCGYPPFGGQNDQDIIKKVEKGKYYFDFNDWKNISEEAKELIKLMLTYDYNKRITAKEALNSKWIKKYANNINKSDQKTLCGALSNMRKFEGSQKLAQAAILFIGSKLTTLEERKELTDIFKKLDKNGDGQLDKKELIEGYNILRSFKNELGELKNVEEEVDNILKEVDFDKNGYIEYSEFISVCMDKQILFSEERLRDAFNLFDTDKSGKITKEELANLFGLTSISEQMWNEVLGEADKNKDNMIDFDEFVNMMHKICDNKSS
T1 sequence (Q9HC98 whole entry): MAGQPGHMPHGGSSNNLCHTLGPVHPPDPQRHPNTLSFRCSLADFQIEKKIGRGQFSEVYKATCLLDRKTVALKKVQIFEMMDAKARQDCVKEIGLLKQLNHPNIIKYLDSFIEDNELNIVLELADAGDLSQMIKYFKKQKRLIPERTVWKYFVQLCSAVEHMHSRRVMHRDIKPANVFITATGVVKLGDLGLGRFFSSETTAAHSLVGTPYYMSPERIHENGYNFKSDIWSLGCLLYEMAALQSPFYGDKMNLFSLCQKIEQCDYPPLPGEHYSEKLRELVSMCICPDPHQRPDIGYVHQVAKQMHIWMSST
T3 sequence (P42338 whole entry): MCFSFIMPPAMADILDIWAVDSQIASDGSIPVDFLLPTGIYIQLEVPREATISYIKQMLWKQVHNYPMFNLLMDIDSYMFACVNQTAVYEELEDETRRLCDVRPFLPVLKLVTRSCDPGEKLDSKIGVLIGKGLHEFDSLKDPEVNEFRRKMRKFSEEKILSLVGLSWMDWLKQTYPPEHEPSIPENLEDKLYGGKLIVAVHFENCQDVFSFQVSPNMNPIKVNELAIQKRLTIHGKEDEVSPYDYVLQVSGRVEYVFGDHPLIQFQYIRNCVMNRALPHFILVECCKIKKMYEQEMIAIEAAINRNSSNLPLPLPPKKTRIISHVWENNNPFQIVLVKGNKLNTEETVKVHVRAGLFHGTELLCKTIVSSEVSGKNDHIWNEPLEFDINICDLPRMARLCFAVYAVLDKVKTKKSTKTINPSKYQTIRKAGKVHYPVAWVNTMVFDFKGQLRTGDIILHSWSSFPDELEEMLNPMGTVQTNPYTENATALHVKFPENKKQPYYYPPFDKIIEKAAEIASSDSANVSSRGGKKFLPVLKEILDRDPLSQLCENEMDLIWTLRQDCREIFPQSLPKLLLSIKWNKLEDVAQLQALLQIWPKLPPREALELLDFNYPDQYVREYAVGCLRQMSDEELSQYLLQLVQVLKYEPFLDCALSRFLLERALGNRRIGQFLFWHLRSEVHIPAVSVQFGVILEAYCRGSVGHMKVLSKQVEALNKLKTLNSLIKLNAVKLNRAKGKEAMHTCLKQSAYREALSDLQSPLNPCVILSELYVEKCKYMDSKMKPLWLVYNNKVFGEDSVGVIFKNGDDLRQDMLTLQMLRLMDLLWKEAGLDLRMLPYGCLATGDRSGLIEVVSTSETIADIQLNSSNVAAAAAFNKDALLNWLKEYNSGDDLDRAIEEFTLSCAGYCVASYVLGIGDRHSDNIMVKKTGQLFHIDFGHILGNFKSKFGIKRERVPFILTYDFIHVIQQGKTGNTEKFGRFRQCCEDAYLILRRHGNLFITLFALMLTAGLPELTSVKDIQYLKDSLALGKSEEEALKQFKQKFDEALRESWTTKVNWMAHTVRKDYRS
T4 sequence (Q9Y6M4 whole entry): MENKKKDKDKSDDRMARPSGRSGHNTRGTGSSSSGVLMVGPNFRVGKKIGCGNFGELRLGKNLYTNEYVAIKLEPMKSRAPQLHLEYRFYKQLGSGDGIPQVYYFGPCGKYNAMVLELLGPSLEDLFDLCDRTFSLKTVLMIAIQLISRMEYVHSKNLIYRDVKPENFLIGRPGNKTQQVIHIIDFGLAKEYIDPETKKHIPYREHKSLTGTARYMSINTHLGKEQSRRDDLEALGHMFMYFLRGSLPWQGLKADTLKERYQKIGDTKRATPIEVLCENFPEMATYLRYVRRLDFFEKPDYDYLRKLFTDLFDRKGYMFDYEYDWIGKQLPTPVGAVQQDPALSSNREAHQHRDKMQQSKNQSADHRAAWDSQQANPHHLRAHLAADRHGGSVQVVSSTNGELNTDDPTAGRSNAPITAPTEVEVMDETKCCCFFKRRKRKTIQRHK

As for `Cc1ccc(C(=O)Nc2ccc(CN3CCN(C)CC3)c(C(F)(F)F)c2)cc1C#Cc1cnc2c(Nc3cnn(C)c3)cccn12` [Example 1, 4-methyl-3-((8-((1-methyl-1H-pyrazol-4-yl)amino)imidazo[1,2-a]pyridin-3-yl)ethynyl)-N-(4-((4-methylpiperazin-1-yl)methyl)-3-(trifluoromethyl)phenyl)benzamide], the remaining binding at 1 µM in test [1] was determined as 65%; in test [2], 44%; in test [3] it was 92%; in [4] it was 100%; in test [5] it was 0%; in test [6] it was 2%. For the same compound, the remaining binding at 1 µM in test [7] was 1%; in test [8], 72%; in test [9], 1%; in test [10] it was 29%; in test [11], 8%; in test [12] it was 4%. Moreover, the remaining binding at 1 µM in test [13] was found to be 3%.

Regarding `Cc1cn(-c2cc(NC(=O)c3ccc(C)c(C#Cc4cnc5c(Nc6cnn(C)c6)cccn45)c3)cc(C(F)(F)F)c2)cn1` [Example 12, 4-methyl-N-(3-(4-methyl-1H-imidazol-1-yl)-5-(trifluoromethyl)phenyl)-3-((8-((1-methyl-1H-pyrazol-4-yl)amino)imidazo[1,2-a]pyridin-3-yl)ethynyl)benzamide], the remaining binding at 1 µM in [1] was 88%; in test [2] it was 67%; in test [3] it was 100%; in test [4] it was 84%; in [5], 0%; in [6], 9%. For the same compound, the remaining binding at 1 µM in [7] amounted to 19%; in [8], 100%; in test [9] it was 55%; in test [10], 85%; in [11], 75%; in test [12], 63%. The remaining binding at 1 µM in test [13] came out at 35%.

Take `Cc1ccc(NC(=O)C2(C(=O)Nc3ccc(F)cc3)CC2)cc1C#Cc1cnc2c(Nc3cnn(C(C)C)c3)cccn12` [Example 78]: the remaining binding at 1 µM in test [1] came out at 100%; in [2], 94%; in test [3], 100%; in test [4], 100%; in test [5] it was 100%; in [6], 91%. In addition, the remaining binding at 1 µM in [7] stood at 100%; in test [8] it was 100%; in test [9], 97%; in test [10], 95%; in test [11], 94%; in [12], 99%. Moreover, the remaining binding at 1 µM in test [13] stood at 100%.
